Measured values from patent US12729192B2, “CDK9 inhibitor and use thereof” (PHARMABLOCK SCIENCES (NANJING), INC., priority 2020, dated 2026).
Like-named read-outs stand apart in the source and are kept apart here.

Columns and labels:
CDK2 = biological target: T1, CDK2 (Homo sapiens, UniProt P24941); assay: CDK2 kinase activity inhibition (ADP-Glo); assay type: biochemical; conditions: 10 μM ATP, 2 h at room temperature
T1 construct: purchased Carna Biosciences, Inc
Experimental: (§1) CDK9 kinase was manufactured by the company or commercially available. CDK1, CDK2 and CDK7 were purchased from Carna Biosciences, Inc. ADP-Glo™ kit was purchased from Promega Corporation. Dithiothreitol (DTT), Tween-20, dimethylsulfoxide (DMSO), bovine serum albumin (BSA) and Tris base were obtained from Sigma at the available highest level of purity.
(§2) General procedures for CDK inhibition determination: The determination was performed in a buffer consisting of 50 μM DTT, 0.1% BSA, 40 mM Tris-HCl pH=7.5 and 20 mM MgCl2. The compound dissolved in DMSO and CDK enzymes were diluted with the buffer. 1 μL of the compound solution in 5% DMSO and 2 μL of the CDK enzyme solution were added to a white low-volume 384-well microtiter plate and incubated for 20 min at room temperature. Ultra pure ATP and the substrate polypeptide (purchased from GenScript Biotech Corporation) were diluted together into the buffer and added to a mixed solution of the compound and the enzyme, 2 μL per well. They were incubated for 2 h at room temperature.
(§3) After the reaction was completed, 5 μL of ADP-Glo™ reagent was added to each well and incubated for 40 min at room temperature, and then 10 μL of test reagent was added to each well and incubated for 30 mi at room temperature. Chemical luminescence values were measured by using a Tecan (Männedorf, Switzerland) multifunctional plate reader Spark for plate reading. The IC50 value of the inhibitor was obtained by fitting the chemical luminescence intensity ratio in the S-shaped dosage reaction curve using Prism 7 (La Jolla, 15 CA) relative to the concentration of the inhibitor.

CDK7 = biological target: T2, CDK7 (Homo sapiens, UniProt P50613); assay: CDK7 kinase activity inhibition (ADP-Glo); assay type: biochemical; conditions: 10 μM ATP, 2 h at room temperature
T2 construct: purchased Carna Biosciences, Inc
T2 sequence (P50613 whole entry): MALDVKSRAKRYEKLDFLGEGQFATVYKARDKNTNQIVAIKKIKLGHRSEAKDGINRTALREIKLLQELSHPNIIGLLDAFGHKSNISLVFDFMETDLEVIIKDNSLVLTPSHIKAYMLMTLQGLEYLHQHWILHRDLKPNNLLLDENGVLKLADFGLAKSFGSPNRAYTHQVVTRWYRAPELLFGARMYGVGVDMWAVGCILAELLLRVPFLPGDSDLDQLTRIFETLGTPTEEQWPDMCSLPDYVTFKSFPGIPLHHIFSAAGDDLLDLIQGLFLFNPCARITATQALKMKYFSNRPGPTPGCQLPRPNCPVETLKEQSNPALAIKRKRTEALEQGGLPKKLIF
T2 sequence (P51946 whole entry partner): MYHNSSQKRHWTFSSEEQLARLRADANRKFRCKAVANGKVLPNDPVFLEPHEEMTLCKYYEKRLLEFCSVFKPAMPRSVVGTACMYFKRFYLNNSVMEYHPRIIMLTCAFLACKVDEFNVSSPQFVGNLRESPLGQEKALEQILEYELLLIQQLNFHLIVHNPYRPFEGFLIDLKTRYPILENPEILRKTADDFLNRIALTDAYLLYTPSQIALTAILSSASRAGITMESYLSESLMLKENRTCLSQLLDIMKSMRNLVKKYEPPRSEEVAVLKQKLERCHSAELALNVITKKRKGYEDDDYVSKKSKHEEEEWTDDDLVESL
T2 sequence (P51948 whole entry partner): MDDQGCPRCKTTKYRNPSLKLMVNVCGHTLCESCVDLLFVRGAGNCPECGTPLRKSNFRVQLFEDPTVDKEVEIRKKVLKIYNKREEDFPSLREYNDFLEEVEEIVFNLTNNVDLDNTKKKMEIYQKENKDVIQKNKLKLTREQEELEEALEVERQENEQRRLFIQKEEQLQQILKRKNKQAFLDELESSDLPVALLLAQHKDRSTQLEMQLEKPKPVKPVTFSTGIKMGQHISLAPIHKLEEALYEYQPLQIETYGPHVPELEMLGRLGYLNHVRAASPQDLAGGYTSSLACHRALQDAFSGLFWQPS
Experimental: as §1, §2, §3

CDK1 = biological target: T3, CDK1 (Homo sapiens, UniProt P06493); assay: CDK1 kinase activity inhibition (ADP-Glo); assay type: biochemical; conditions: 50 μM ATP, 2 h at room temperature
T3 construct: purchased Carna Biosciences, Inc
T3 sequence (P06493 whole entry): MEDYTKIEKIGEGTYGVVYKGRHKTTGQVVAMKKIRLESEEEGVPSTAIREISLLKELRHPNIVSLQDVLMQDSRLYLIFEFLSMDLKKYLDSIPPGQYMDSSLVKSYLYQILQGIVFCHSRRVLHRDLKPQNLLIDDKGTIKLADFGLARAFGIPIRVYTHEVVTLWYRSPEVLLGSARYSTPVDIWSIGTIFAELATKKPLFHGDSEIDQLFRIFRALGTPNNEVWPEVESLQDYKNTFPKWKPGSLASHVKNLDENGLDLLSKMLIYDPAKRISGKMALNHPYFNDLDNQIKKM
T3 sequence (P14635 whole entry partner): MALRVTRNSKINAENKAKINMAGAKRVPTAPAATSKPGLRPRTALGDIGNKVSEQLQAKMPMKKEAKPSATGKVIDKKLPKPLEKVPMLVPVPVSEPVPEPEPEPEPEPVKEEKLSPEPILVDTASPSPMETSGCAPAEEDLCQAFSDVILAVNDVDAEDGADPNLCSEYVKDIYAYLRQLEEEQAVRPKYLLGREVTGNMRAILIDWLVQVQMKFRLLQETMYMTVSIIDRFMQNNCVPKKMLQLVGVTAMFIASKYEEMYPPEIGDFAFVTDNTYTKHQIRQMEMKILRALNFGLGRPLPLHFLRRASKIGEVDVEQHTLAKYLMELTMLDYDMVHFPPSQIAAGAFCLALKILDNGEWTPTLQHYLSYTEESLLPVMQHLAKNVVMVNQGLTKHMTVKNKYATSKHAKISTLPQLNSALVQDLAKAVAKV
Experimental: as §1, §2, §3

MOLM-13 cells = assay: Tumor cell proliferation inhibition experiment (CellTiter-Glo); assay type: cell-based; conditions: Homo sapiens, read-out: MOLM-13 (nM) IC50, cell proliferation inhibition
Excerpt: An acute myeloid leukemia (AML) cell line (MOLM-13) was purchased from NANJING COBIOER BIOSCIENCES CO., LTD. An RPMI1640 medium and a penicillin-streptomycin double-antibody were purchased from ThermoFisher (Waltham, MA, USA). Certified fetal bovine serum (FBS) was purchased from Biological Industries (Israel). A Corning 384-well cell culture plate was purchased from CORNING (USA). Cell-Titer Glo® was purchased from Promega Corporation (Madison, WI, USA).
To evaluate the ability of the synthetic compound to inhibit the proliferation of MOLM-13 cells, MOLM-13 cells at an exponential growth stage were inoculated at a density of 500,000 cell/mL in the RPMI1640 medium containing 20% bovine serum and 1% penicillin-streptomycin double-antibody, and the 384-well plate contained 20 μL per well and placed overnight in an 37° C., 5% CO2 incubator. Compound powder was dissolved in DMSO to prepare a storage mother liquor with a concentration of 2 mM, and 12 dilutions with three-fold gradient concentrations were further prepared. 1 μL of gradient-diluted DMSO solution was added to 99 μL of cell culture medium (the final maximum concentration of the compound in the assay was 10 uM and the final concentration of DMSO was 0.5%). 20 μL of compound solution in the medium was added at gradients to each cell-coated test well of the 384-well plate. After the compound solution was added, the 384-well plate was incubated for 16 h in a 37° C., 5% CO2 incubator. Cell viability was determined by quantifying ATPs present in test wells using the CellTiter-Glo kit from Promega (Madison, WI, USA). After 20 minutes of incubation, readings were obtained under a chemical luminescence procedure using Tecan's Spark multifunctional plate reader. The concentration (IC50 value) of the compound at which the cell survival rate was inhibited by 50% was determined using an S-shaped dosage response model (variable slope, four parameters) in Prism 7 (LaJolla, CA).

CDK9 = CDK9 (Homo sapiens, UniProt P50750); assay: CDK9 kinase activity inhibition (ADP-Glo); assay type: biochemical; conditions: 10 μM ATP, 2 h at room temperature
Sequence of CDK9 (P50750 whole entry): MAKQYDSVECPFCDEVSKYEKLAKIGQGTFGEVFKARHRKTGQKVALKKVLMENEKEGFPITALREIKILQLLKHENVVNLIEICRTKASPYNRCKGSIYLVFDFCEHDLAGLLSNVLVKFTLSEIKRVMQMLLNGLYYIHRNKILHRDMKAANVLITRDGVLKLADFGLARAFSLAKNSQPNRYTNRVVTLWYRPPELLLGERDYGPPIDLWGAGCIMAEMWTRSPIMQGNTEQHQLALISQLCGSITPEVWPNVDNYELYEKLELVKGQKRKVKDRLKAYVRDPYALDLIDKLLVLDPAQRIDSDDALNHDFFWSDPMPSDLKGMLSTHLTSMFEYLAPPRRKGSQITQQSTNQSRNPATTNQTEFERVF
Sequence of CDK9 (O60563 whole entry partner): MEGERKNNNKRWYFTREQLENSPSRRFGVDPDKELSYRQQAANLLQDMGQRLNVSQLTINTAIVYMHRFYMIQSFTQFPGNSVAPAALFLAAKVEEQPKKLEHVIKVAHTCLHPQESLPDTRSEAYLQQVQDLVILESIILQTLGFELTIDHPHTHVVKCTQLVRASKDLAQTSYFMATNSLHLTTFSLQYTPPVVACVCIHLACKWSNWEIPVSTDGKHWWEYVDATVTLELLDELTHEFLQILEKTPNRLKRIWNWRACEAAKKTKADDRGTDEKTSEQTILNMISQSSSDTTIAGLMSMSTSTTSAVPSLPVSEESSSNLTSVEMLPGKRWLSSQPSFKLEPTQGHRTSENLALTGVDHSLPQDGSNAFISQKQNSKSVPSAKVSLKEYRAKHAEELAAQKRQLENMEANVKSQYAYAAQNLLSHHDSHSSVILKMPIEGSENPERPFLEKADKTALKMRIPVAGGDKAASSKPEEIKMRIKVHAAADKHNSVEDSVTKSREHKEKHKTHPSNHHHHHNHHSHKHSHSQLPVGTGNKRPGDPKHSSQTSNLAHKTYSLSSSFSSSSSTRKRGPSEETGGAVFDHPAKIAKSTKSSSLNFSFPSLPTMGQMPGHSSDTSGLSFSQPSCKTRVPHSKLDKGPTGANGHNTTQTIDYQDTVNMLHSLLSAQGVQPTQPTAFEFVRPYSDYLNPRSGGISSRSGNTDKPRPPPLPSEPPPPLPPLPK
Experimental: as §1, §2, §3

[1] = acute myeloid leukemia cell line MOLM-13, 16 h incubation, CellTiter-Glo

Row | IC50 (CDK2) [nM] | IC50 (CDK7) [nM] | IC50 (CDK1) [nM] | IC50 (MOLM-13 cells; [1]) [nM] | IC50 (CDK9) [nM] | Compound | IC50 (MOLM-13 cells; MOLM-13, 16 h) [nM]
1 | 18.6 | 31.4 | 8.3 | 17.1 | – | CC(=O)N[C@@H]1CCC[C@H](C(=O)Nc2cc(-c3cnn4c3CC(C)(C)C4)c(Cl)cn2)C1 [AZD4573, reference compound] | –
2 | 811 | 4290 | 570 | 118 | – | COc1cc(F)ccc1-c1cc(Nc2cc(CS(C)(=N)=O)ccn2)ncc1F (centres unmarked) [BAY1251152, reference compound] | –
3 | 36.7 | 1950 | – | 24.8 | 4.9 | CC(=O)NC[C@H]1CCC(F)(F)CN1C(=O)c1nc(Nc2cc(C#N)ccn2)ccc1C [Compound 1, (R)—N-((1-(6-((4-cyanopyridin-2-yl)amino)-3-methylpyridine-2-carbonyl)-5,5-difluoropiperidin-2-yl)methyl)acetamide] | –
4 | 217 | 2600 | 350 | 27.9 | 5.8 | CC(=O)NC[C@H]1CCC(F)(F)CN1C(=O)c1nc(Nc2cc(OC(F)(F)F)ccn2)ccc1C [Compound 5, (R)—N-((5,5-difluoro-1-(3-methyl-6-((4-(trifluoromethoxy)pyridin-2-yl)amino)pyridine-2-carbonyl)piperidin-2-yl)methyl)acetamide] | –
5 | 368 | 4350 | 755 | 45.3 | 5.1 | CC(=O)NC[C@H]1CCC(F)(F)CN1C(=O)c1nc(Nc2cc(OC(F)F)ccn2)ccc1C [Compound 11, (R)—N-((1-(6-((4-(difluoromethoxy)pyridin-2-yl)amino)-3-methylpyridine-2-carbonyl)-5,5-difluoropiperidin-2-yl)methyl)acetamide] | –
6 | 12 | > 10000 | 503 | – | 4.3 | CC(=O)NC[C@H]1CCC(F)(F)CN1C(=O)c1nc(Nc2cc(C3CC(F)(F)C3)[nH]n2)ccc1C [Compound 15, (R)—N-((1-(6-((5-(3,3-difluorocyclobutyl)-1H-pyrazol-3-yl)amino)-3-methylpyridine-2-carbonyl)-5,5-difluoropiperidin-2-yl)methyl)acetamide] | –
7 | 48.7 | 7780 | 106 | 24.2 | 9 | CC(=O)NC[C@H]1CCC(F)(F)CN1C(=O)c1nc(Nc2cc([N+](=O)[O-])ccn2)ccc1C [Compound 19, (R)—N-((5,5-difluoro-1-(3-methyl-6-((4-nitropyridin-2-yl)amino)pyridine-2-carbonyl)piperidin-2-yl)methyl)acetamide] | –
8 | 1260 | – | – | 133 | 9.4 | CC(=O)NC[C@H]1CCC(F)(F)CN1C(=O)c1nc(Nc2cc(CF)ccn2)ccc1C [Compound 28, (R)—N-((5,5-difluoro-1-(6-((4-(fluoromethyl)pyridin-2-yl)amino)-3-methylpyridine-2-carbonyl)piperidin-2-yl)methyl)acetamide] | –
9 | 180 | 7030 | 1470 | – | 3.7 | Cc1ccc(Nc2cc(C#N)ccn2)nc1C(=O)N1CC(F)(F)CC[C@@H]1CNC(=O)OC(C)(C)C [Compound 31, (R)-((1-(6-((4-cyanopyridin-2-yl)amino)-3-methylpyridine-2-carbonyl)-5,5-difluoropiperidin-2-yl)methyl)t-butyl carbamate] | –
10 | 305 | 780 | 1390 | – | 11.6 | Cc1ccc(Nc2cc(OC(F)(F)F)ccn2)nc1C(=O)N1CC(F)(F)CC[C@@H]1CNS(C)(=O)=O [Compound 32, (R)—N-((5,5-difluoro-1-(3-methyl-6-((4-(trifluoromethoxy)pyridin-2-yl)amino)pyridine-2-carbonyl)piperidin-2-yl)methyl)methanesulfonamide] | –
11 | 6840 | > 10000 | > 10000 | – | 5 | CCOc1ccnc(Nc2ccc(C)c(C(=O)N3CC(F)(F)CC[C@@H]3CNC(C)=O)n2)c1 [Compound 35, (R)—N-((1-(6-((4-ethoxypyridin-2-yl)amino)-3-methylpyridine-2-carbonyl)-5,5-difluoropiperidin-2-yl)methyl)acetamide] | –
12 | 844 | – | – | 938 | 119 | Cc1ccc(Nc2cc(OC(F)(F)F)ccn2)nc1C(=O)N1CC(F)(F)CCC1C(=O)N1CCCC1 (centres unmarked) [Compound 47, (5,5-Difluoro-1-(3-methyl-6-((4-(trifluoromethoxy)pyridin-2-yl)amino)pyridine-2-carbonyl)piperidin-2-yl)(pyrrolidin-1-yl)methanone] | –
13 | 2870 | – | – | 683 | 16.4 | Cc1ccc(Nc2cc(OC(F)(F)F)ccn2)nc1C(=O)N1CC(F)(F)CC[C@@H]1CN1CCCC1=O [Compound 48, (R)-1-((5,5-difluoro-1-(3-methyl-6-((4-(trifluoromethoxy)pyridin-2-yl)amino)pyridine-2-carbonyl)piperidin-2-yl)methyl)pyrrolidinone-2-one] | –
14 | 1270 | – | – | 112 | 7.7 | Cc1ccc(Nc2cc(OC(F)(F)F)ccn2)nc1C(=O)N1CC(F)(F)CC[C@@H]1CNC(=O)C1CC1 [Compound 51, (R)—N-((5,5-difluoro-1-(3-methyl-6-((4-(trifluoromethoxy)pyridin-2-yl)amino)pyridine-2-carbonyl)piperidin-2-yl)methyl)cyclopropanecarboxamide] | –
15 | 797 | – | – | 894 | 70.5 | CC(=O)N[C@@H]1C[C@H](Nc2nc(Nc3cc(OC(F)(F)F)ccn3)ccc2C)CC(F)(F)C1 [Compound 60, N-((1R,5S)-3,3-difluoro-5-((3-methyl-6-((4-(trifluoromethoxy)pyridin-2-yl)amino)pyridin-2-yl)amino)cyclohexyl)acetamide] | –
16 | 120 | – | – | 120 | 6.3 | CC(=O)NC[C@H]1CCC(F)(F)CN1C(=O)c1nc(Nc2cc(OC(F)(F)F)ccn2)ccc1F [Compound 64, (R)—N-((5,5-difluoro-1-(3-fluoro-6-((4-(trifluoromethoxy)pyridin-2-yl)amino)pyridine-2-carbonyl)piperidin-2-yl)methyl)acetamide] | –
17 | 258 | – | – | 198 | 7.2 | CC(=O)NC[C@H]1CCC(F)(F)CN1C(=O)c1cccc(Nc2cc(OC(F)(F)F)ccn2)n1 [Compound 80, (R)—N-((5,5-difluoro-1-(6-((4-(trifluoromethoxy)pyridin-2-yl)amino)pyridine-2-carbonyl)piperidin-2-yl)methyl)acetamide] | –

Row | Compound | IC50 (CDK2) [nM] | IC50 (CDK7) [nM] | IC50 (CDK1) [nM] | IC50 (MOLM-13 cells; [1]) [nM] | IC50 (CDK9) [nM] | IC50 (MOLM-13 cells; MOLM-13, 16 h) [nM]
18 | COC(=O)c1ccnc(Nc2ccc(C)c(C(=O)N3CC(F)(F)CC[C@@H]3CNC(C)=O)n2)c1 [Compound 56, (R)-2-((6-(2-(acetamidomethyl)-5,5-difluoropiperidine-1-carbonyl)-5-methylpyridin-2-yl)amino)methyl isonicotinate] | 924 | – | 3750 | – | 7.7 | 180
19 | CC(=O)NC[C@H]1CCC(F)(F)CN1C(=O)c1nc(Nc2cc(OC(F)(F)F)ccn2)ccc1Cl [Compound 84, (R)—N-((1-(3-chloro-6-((4-(trifluoromethoxy)pyridin-2-yl)amino)pyridine-2-carbonyl)-5,5-difluoropiperidin-2-yl)methyl)acetamide] | 577 | – | – | – | 6.2 | 58.6
